In patent US20250325531A1, “TREATMENT OF SYSTOLIC DYSFUNCTION” (MyoKardia, Inc., priority 2024, published 2025):

Test: Food effect on pharmacokinetics, 200 mg as 25 mg tablets, fed vs fasted, healthy volunteers
Format: in vivo, human
Description: This example describes a clinical study for establishing, in healthy volunteers, the effect of a high fat, high caloric meal on the PK profile of Compound I, as compared to administration of the drug in the fasted state. The study also was intended to determine the safety and tolerability after a single oral dose of Compound I in the fed and fasted state in healthy volunteers. The measurements of PK, PD, and other clinical parameters were done as described in Example 1 above.
This study was an open-label, randomized, two-period cross-over study in healthy volunteers aged 18-55 years. Subjects were screened up to 28 days before the first treatment period. Subjects were admitted to the clinical site on Day −1 (the day before dosing) of Period 1. Approximately half of the subjects randomly received a single dose of Compound I on Day 1 of the first treatment period after the ingestion of a high fat, high caloric breakfast, and the remainder were dosed in the fasted state. Any subject with a predose resting HR ≥95 beats per minute (bpm) was considered ineligible and was not treated. Any subjects with an acute gastrointestinal disorder which could impact drug/food absorption (e.g., vomiting, diarrhea) were rescheduled. Subjects were confined to the clinic until Day 4, and discharged after the 72-hour postdose PK and laboratory samples and vital signs were obtained. After a washout between dosing from 7 to 10 days (or, after consultation with the Investigator, up to 21 days after initial dosing if the subject was unable to attend within the 7 to 10-day window), the subject was admitted for Period 2. The sequence of fed/fasted versus fasted/fed periods was randomized. Subjects returned after the second treatment period for a safety follow-up visit on Day 7 (+1 day).
In both treatment periods, Compound I was administered with 240 mL of water. In the fasted state, the subjects fasted for 10 hours before and for 4 hours after the administration of Compound I. Water could have been ingested up to 1 hour before and after 1 hour post dosing. In the fed state, the subjects fasted for 10 hours before and for 4 hours after the ingestion of the meal, but could have ingested water up to 1 hour before and 1 hour after dosing. In the fed state, the subjects started ingesting the high fat, high caloric meal within 30 minutes prior to Compound I administration and finished the meal within 30 minutes. The meal contained approximately 800 to 1000 calories with about 50% of the calories from fat. The meal consisted of approximately 150 calories from protein, 250 calories from carbohydrate, and 500-600 calories from fat. An example of the meal was a breakfast consisting of two eggs fried in butter, two strips of bacon, two slices of buttered toast, 4 ounces of hash brown potatoes, and 8 ounces of whole milk.
Each subject received two oral doses of 200 mg of Compound I formulated as 25 mg tablets (8 tablets) in a randomized, cross-over fashion, once in the fasted state and the other time after the ingestion of a high fat, high caloric breakfast. There was a washout of between 7 and 21 days between the administrations of the two doses. The Compound I drug substance was a crystalline, free-base, synthetic molecule with a molecular weight of 435.4.
Plasma drug concentrations were measured as described in Example 1 above. Blood samples to measure Compound I plasma concentration were collected at various time points, including on Day 1 predose (1 hour prior to dosing) and at 1 (±5 min), 2 (±5 min), 3 (±5 min), 4 (═10 min), 5 (±10 min), 6 (±10 min), 9 (±20 min), 12 (±20 min), 18 (±30 min), 24 (±30 min), 36 (±30 min), 48 (±30 min), and 72 (±30 min) hours postdose on both treatment periods.
To assess the effect of food on the PK of Compound I, the two one-sided t-test procedure was used to construct 90% CI around the geometric mean ratios (fed/fasted) of plasma AUCinf, AUClast, and Cmax. […]

[1] = 200 mg, subjects who completed both periods (N = 9)
[2] = 200 mg, subjects who completed both fasted and fed periods (N = 9)
[3] = single oral 200 mg, Fasted (N = 10)
[4] = single oral 200 mg, Fed (N = 10)

Structure (SMILES): Cn1cc(S(=O)(=O)[C@@](C)(F)C2CCN(C(=O)Nc3ccon3)CC2)c(C(F)F)n1 [Compound I, (R)-4-(1-((3-(difluoromethyl)-1-methyl-1H-pyrazol-4-yl)sulfonyl)-1-fluoroethyl)-N-(isoxazol-3-yl) piperidine-1-carboxamide]
- exposure (Cmax) higher in fed vs fasted state (200 mg): ~60%
- AUClast, Fasted LSGM (200 mg, N = 11): 57.4 µg·h/mL
- Cmax, Fasted LSGM (200 mg, N = 11): 2.3 µg/mL
- Cmax, Fed LSGM (200 mg, N = 11): 3.64 µg/mL
- AUCinf, Geometric Mean Ratio - Fed/Fasted (200 mg, N = 11, 90% CI 130.30-182.67): 154.28 % of Reference
- AUClast, Geometric Mean Ratio - Fed/Fasted (200 mg, N = 11, 90% CI 131.11-180.92): 154.02 % of Reference
- Cmax, Geometric Mean Ratio - Fed/Fasted (200 mg, N = 11, 90% CI 137.11-182.33): 158.11 % of Reference
- Median (range) Tmax (200 mg, fed state): 5.5 h
- AUC0-t geometric mean ratio (fed/fasted) [1]: 153.20%
- AUCinf geometric mean ratio (fed/fasted) [1]: 153.63%
- Cmax geometric mean ratio (fed/fasted) [1]: 156.43%
- AUCinf, Geometric Mean Ratio - Fed/Fasted [2]: 153.63 % of Reference
- AUClast, Fasted LSGM [2]: 59 µg·h/mL
- AUClast, Geometric Mean Ratio - Fed/Fasted [2]: 153.20 % of Reference
- Cmax, Fasted LSGM [2]: 2.37 µg/mL
- Cmax, Fed LSGM [2]: 3.7 µg/mL
- Cmax, Geometric Mean Ratio - Fed/Fasted [2]: 156.43 % of Reference
- MRT, Mean [3]: 22.55 h
- MRT, Median [3]: 23.86 h
- T1/2, z, Mean [3]: 14.28 h
- AUCinf, Median [4]: 93.95 µg·h/mL
- AUClast, Geometric Mean [4]: 88.4 µg·h/mL
- AUClast, Median [4]: 89.31 µg·h/mL
- Cmax Geometric Mean [4]: 3.644 µg/mL
- T1/2, z, Geometric Mean [4]: 13.56 h
